Experiment: xn = mol fraction of the nth substance listed

CCCCC(=O)O + CCCCCCCO
viscosity [mPa·s], 100 kPa
Conditions	x1 = 0.0814	x1 = 0.1667	x1 = 0.2436	x1 = 0.3521	x1 = 0.4395	x1 = 0.5617	x1 = 0.6566	x1 = 0.7424	x1 = 0.8518	x1 = 0.9437
293.15 K	6.67	6.29	5.94	5.44	5.02	4.43	3.96	3.54	2.99	2.53
303.15 K	4.79	4.54	4.31	3.98	3.7	3.31	3	2.72	2.36	2.06
313.15 K	3.52	3.32	3.14	2.9	2.72	2.46	2.27	2.09	1.87	1.68
323.15 K	2.66	2.53	2.42	2.26	2.13	1.96	1.83	1.71	1.56	1.43

CCCCC(=O)O + CCCCCCO
viscosity [mPa·s], 100 kPa
Conditions	x1 = 0.0922	x1 = 0.1786	x1 = 0.2643	x1 = 0.3791	x1 = 0.4723	x1 = 0.5917	x1 = 0.6782	x1 = 0.7647	x1 = 0.8655	x1 = 0.9463
293.15 K	5.13	4.89	4.64	4.3	4	3.61	3.33	3.04	2.7	2.43
303.15 K	3.78	3.63	3.47	3.24	3.04	2.79	2.6	2.4	2.17	1.99
313.15 K	2.84	2.74	2.63	2.49	2.36	2.18	2.06	1.93	1.78	1.65
323.15 K	2.18	2.11	2.03	1.93	1.85	1.74	1.66	1.57	1.48	1.4

NCCNCCN + CCCCCCO
viscosity [mPa·s], 101 kPa
Conditions	298.15 K	303.15 K	308.15 K
x1 = 0.0573	5.116	4.247	3.626
x1 = 0.1064	5.533	4.59	3.929
x1 = 0.1567	5.928	4.857	4.134
x1 = 0.2089	6.207	5.066	4.274
x1 = 0.2683	6.373	5.168	4.367
x1 = 0.2986	6.429	5.206	4.393
x1 = 0.4054	6.424	5.195	4.362
x1 = 0.5082	6.261	5.038	4.22
x1 = 0.6024	5.991	4.851	4.058
x1 = 0.7078	5.825	4.666	3.925
x1 = 0.7906	5.648	4.568	3.857
x1 = 0.8419	5.594	4.524	3.828
x1 = 0.9102	5.589	4.493	3.81
x1 = 0.9579	5.579	4.478	3.801

CCCCC(=O)O + CCCCCO
viscosity [mPa·s], 100 kPa
Conditions	x1 = 0.0805	x1 = 0.1593	x1 = 0.2392	x1 = 0.3508	x1 = 0.4406	x1 = 0.5609	x1 = 0.6497	x1 = 0.7392	x1 = 0.8517	x1 = 0.9395
293.15 K	3.93	3.83	3.71	3.54	3.38	3.15	2.98	2.79	2.56	2.37
303.15 K	2.98	2.92	2.85	2.74	2.63	2.48	2.36	2.24	2.08	1.96
313.15 K	2.29	2.25	2.21	2.14	2.07	1.97	1.9	1.82	1.71	1.63
323.15 K	1.79	1.76	1.73	1.68	1.64	1.58	1.54	1.49	1.43	1.38

Oc1cccc2ccccc12 + CCCCCOC(C)=O
Conditions	viscosity [mPa·s]
298.15 K, 101 kPa, x2 = 0.5	1.549

Oc1cccc(O)c1 + CCCCO
Conditions	viscosity [mPa·s]
293.15 K, 101 kPa, x1 = 0.28	19.75

Oc1cccc2ccccc12 + CCCCO
viscosity [mPa·s], 101 kPa
Conditions	x1 = 0.04	x1 = 0.08	x1 = 0.12	x1 = 0.16	x1 = 0.2
293.15 K	3.278	3.6	3.953	4.407	4.888
303.15 K	2.489	2.719	2.974	3.265	3.61
313.15 K	1.952	2.106	2.289	2.512	2.745
323.15 K	1.56	1.685	1.816	1.966	2.14

Oc1cccc(O)c1O + CCCC[N+](CCCC)(CCCC)CCCC.[Br-]
101.3 kPa, x2 = 0.5
Conditions	viscosity [mPa·s]
293.15 K	30000
298.15 K	18500
303.15 K	11000
308.15 K	6000
313.15 K	3250
318.15 K	1850
323.15 K	1200

NCCNCCN + CCCCn1cc[n+](C)c1.F[B-](F)(F)F
Conditions	viscosity [mPa·s]
313.15 K, 101.33 kPa, x2 = 0.8948	46.45

CCCCOCCOCCOCCCC + CCCN
298.15 K, 101 kPa
Conditions	viscosity [mPa·s]
x1 = 0.0095	0.375
x1 = 0.0288	0.417
x1 = 0.0455	0.45
x1 = 0.0845	0.529
x1 = 0.1266	0.622
x1 = 0.1754	0.719
x1 = 0.2172	0.806
x1 = 0.2531	0.87
x1 = 0.266	0.904
x1 = 0.3172	0.994
x1 = 0.3559	1.055
x1 = 0.3977	1.129
x1 = 0.4621	1.24
x1 = 0.516	1.33
x1 = 0.5979	1.489
x1 = 0.6482	1.579
x1 = 0.6986	1.689
x1 = 0.7471	1.774
x1 = 0.7956	1.869
x1 = 0.8618	2.01
x1 = 0.9261	2.093
x1 = 0.9641	2.143

CCCCO + CCCO
Conditions	viscosity [mPa·s]
293.15 K, 101.33 kPa, x2 = 0.152	2.84
293.15 K, 101.33 kPa, x2 = 0.3302	2.715
293.15 K, 101.33 kPa, x2 = 0.5008	2.566
293.15 K, 101.33 kPa, x2 = 0.616	2.474
293.15 K, 101.33 kPa, x2 = 0.7172	2.41
293.15 K, 101.33 kPa, x2 = 0.8933	2.282
298.15 K, 101 kPa, x1 = 0.1009	2.024
298.15 K, 101 kPa, x1 = 0.2	2.082
298.15 K, 101 kPa, x1 = 0.3013	2.135
298.15 K, 101 kPa, x1 = 0.4026	2.194
298.15 K, 101 kPa, x1 = 0.5009	2.254
298.15 K, 101 kPa, x1 = 0.6055	2.319
298.15 K, 101 kPa, x1 = 0.6279	2.326
298.15 K, 101 kPa, x1 = 0.7983	2.432
298.15 K, 101 kPa, x1 = 0.8992	2.494
298.15 K, 101.33 kPa, x2 = 0.1147	2.507
298.15 K, 101.33 kPa, x2 = 0.3211	2.378
298.15 K, 101.33 kPa, x2 = 0.4966	2.261
298.15 K, 101.33 kPa, x2 = 0.6315	2.172
298.15 K, 101.33 kPa, x2 = 0.7297	2.118
298.15 K, 101.33 kPa, x2 = 0.9322	2.001

CCCCOCCOCCOCCCC + CCCO
298.15 K, 101.33 kPa
Conditions	viscosity [mPa·s]
x1 = 0.0034	1.944
x1 = 0.0097	1.937
x1 = 0.0158	1.93
x1 = 0.0252	1.917
x1 = 0.0426	1.895
x1 = 0.0734	1.866
x1 = 0.0979	1.849
x1 = 0.1509	1.832
x1 = 0.1955	1.824
x1 = 0.2419	1.827
x1 = 0.2937	1.837
x1 = 0.3481	1.851
x1 = 0.3959	1.868
x1 = 0.4376	1.884
x1 = 0.4827	1.901
x1 = 0.54	1.925
x1 = 0.5983	1.949
x1 = 0.6416	1.968
x1 = 0.6954	1.99
x1 = 0.7531	2.016
x1 = 0.8095	2.039
x1 = 0.8656	2.061
x1 = 0.9083	2.079
x1 = 0.9447	2.096
x1 = 0.9742	2.111

Oc1cccc(O)c1 + CCCO
viscosity [mPa·s], 101 kPa
Conditions	293.15 K	303.15 K	323.15 K
x1 = 0.07	3.605	–	1.675
x1 = 0.28	–	12.05	–

Oc1cccc2ccccc12 + CCCO
viscosity [mPa·s], 101 kPa
Conditions	x1 = 0.04	x1 = 0.08	x1 = 0.12	x1 = 0.16	x1 = 0.2
293.15 K	2.564	2.904	3.349	3.844	4.423
303.15 K	1.999	2.245	2.528	2.863	3.26
313.15 K	1.592	1.696	1.867	2.114	2.396
323.15 K	1.293	1.403	1.567	1.748	1.954

NCCNCCN + CCN(CC)CCO
viscosity [mPa·s], 101 kPa
Conditions	x1 = 0.1	x1 = 0.1999	x1 = 0.2999	x1 = 0.3997	x1 = 0.4997	x1 = 0.5997	x1 = 0.6996	x1 = 0.7992	x1 = 0.8989
293.15 K	6.36	7.21	8	8.32	8.45	8.11	7.8	7.34	7.02
303.15 K	4.38	4.95	5.25	5.5	5.64	5.52	5.31	5.08	4.89
313.15 K	3.14	3.46	3.72	3.92	4.02	3.94	3.8	3.62	3.52
323.15 K	2.28	2.54	2.72	2.9	3	2.95	2.88	2.77	2.69

NCCNCCN + CCO
viscosity [mPa·s], 100 kPa
Conditions	x2 = 0.1023	x2 = 0.2001	x2 = 0.3566	x2 = 0.492	x2 = 0.6001	x2 = 0.6952	x2 = 0.7703	x2 = 0.8378	x2 = 0.897	x2 = 0.9523
298.15 K	5.92	5.97	5.63	5.02	4.36	3.7	3.08	2.51	1.97	1.49
303.15 K	4.85	4.98	4.76	4.25	3.74	3.17	2.69	2.2	1.76	1.34
308.15 K	4.21	4.33	4.13	3.69	3.24	2.79	2.4	1.99	1.62	1.24

Oc1cccc(O)c1 + CCO
Conditions	viscosity [mPa·s]
323.15 K, 101 kPa, x1 = 0.07	1.265

Oc1cccc2ccccc12 + CCO
viscosity [mPa·s], 101 kPa
Conditions	x1 = 0.03	x1 = 0.06	x1 = 0.09	x1 = 0.12	x1 = 0.15
293.15 K	1.425	1.638	1.885	2.205	2.538
303.15 K	1.158	1.337	1.523	1.733	1.968
313.15 K	0.964	1.103	1.251	1.417	1.6
323.15 K	0.795	0.91	1.048	1.186	1.339

CCCCOCCOCCOCCCC + CCOC(=O)OCC
viscosity [mPa·s], 101.3 kPa
Conditions	298.15 K	308.15 K	318.15 K
x1 = 0.0131	0.771	0.675	0.587
x1 = 0.0338	0.806	0.699	0.603
x1 = 0.0756	0.864	0.751	0.638
x1 = 0.1533	0.976	0.842	0.707
x1 = 0.2472	1.118	0.949	0.792
x1 = 0.3392	1.245	1.056	0.871
x1 = 0.4137	1.359	1.14	0.94
x1 = 0.425	1.379	1.153	0.95
x1 = 0.4831	1.457	1.22	1.002
x1 = 0.6085	1.63	1.357	1.105
x1 = 0.7927	1.892	1.556	1.255
x1 = 0.8959	2.018	1.656	1.328
x1 = 0.954	2.116	1.734	1.383

Oc1cccc(O)c1O + CC[N+](CC)(CC)CC.[Br-]
101.3 kPa, x2 = 0.333
Conditions	viscosity [mPa·s]
293.15 K	46000
298.15 K	32000
303.15 K	23000
308.15 K	16000
313.15 K	10500
318.15 K	7500
323.15 K	5500

— the CheMixHub viscosity set
